# Results from US9693556B2, “Herbicidal pyridazinone derivatives” (SYNGENTA LIMITED, priority 2011, dated 2017).
# Key:
# Type in all cases: in vivo
# [1] = system: Echinochloa crus-galli (ECHCG); assay: Post-emergence herbicidal glasshouse test on Echinochloa crus-galli; details: post-emergence; 1000 g/h; evaluated after 13 days
# Procedure, shortened: (§1)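 Pre-emergence treatment came one day after sowing, post-emergence treatment after eight days' growth; both used 1000 g/h in a 0.5% Tween 20 acetone/water vehicle. Percent damage, scored 1–5, was read 13 days later.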
# [2] = system: Amaranthus retoflexus (AMARE); assay: Post-emergence herbicidal glasshouse test on Amaranthus retoflexus; details: post-emergence; 1000 g/h; evaluated after 13 days
# Procedure, shortened: as §1
# [3] = system: Alopecurus myosuroides (ALOMY); assay: Pre-emergence herbicidal glasshouse test on Alopecurus myosuroides; details: pre-emergence; 1000 g/h; evaluated after 13 days
# Procedure, shortened: as §1
# [4] = system: Ipomoea hederacea (IPOHE); assay: Pre-emergence herbicidal glasshouse test on Ipomoea hederacea; details: pre-emergence; 1000 g/h; evaluated after 13 days
# Procedure, shortened: as §1
# Setaria faberi (SETFA) [5] = assay: Pre-emergence herbicidal glasshouse test on Setaria faberi; details: pre-emergence; 1000 g/h; evaluated after 13 days
# Procedure, shortened: as §1
# [6] = system: Alopecurus myosuroides (ALOMY); assay: Post-emergence herbicidal glasshouse test on Alopecurus myosuroides; details: post-emergence; 1000 g/h; evaluated after 13 days
# Procedure, shortened: as §1
# Setaria faberi (SETFA) [7] = assay: Post-emergence herbicidal glasshouse test on Setaria faberi; details: post-emergence; 1000 g/h; evaluated after 13 days
# Procedure, shortened: as §1
# [8] = system: Amaranthus retoflexus (AMARE); assay: Pre-emergence herbicidal glasshouse test on Amaranthus retoflexus; details: pre-emergence; 1000 g/h; evaluated after 13 days
# Procedure, shortened: as §1
# [9] = system: Ipomoea hederacea (IPOHE); assay: Post-emergence herbicidal glasshouse test on Ipomoea hederacea; details: post-emergence; 1000 g/h; evaluated after 13 days
# Procedure, shortened: as §1
# [10] = system: Echinochloa crus-galli (ECHCG); assay: Pre-emergence herbicidal glasshouse test on Echinochloa crus-galli; details: pre-emergence; 1000 g/h; evaluated after 13 days
# Procedure, shortened: as §1
# Solanum nigrum (SOLNI) [11] = assay: Post-emergence herbicidal glasshouse test on Solanum nigrum; details: post-emergence; 1000 g/h; evaluated after 13 days
# Procedure, shortened: as §1
# Solanum nigrum (SOLNI) [12] = assay: Pre-emergence herbicidal glasshouse test on Solanum nigrum; details: pre-emergence; 1000 g/h; evaluated after 13 days
# Procedure, shortened: as §1
Structure (SMILES),POST Application ECHCG herbicidal damage (five point scale) [1],POST Application AMARE herbicidal damage (five point scale) [2],PRE Application ALOMY herbicidal damage (five point scale) [3],PRE Application IPOHE herbicidal damage (five point scale) [4],PRE Application SETFA herbicidal damage (five point scale) (Setaria faberi (SETFA) [5]),POST Application ALOMY herbicidal damage (five point scale) [6],POST Application SETFA herbicidal damage (five point scale) (Setaria faberi (SETFA) [7]),PRE Application AMARE herbicidal damage (five point scale) [8],POST Application IPOHE herbicidal damage (five point scale) [9],PRE Application ECHCG herbicidal damage (five point scale) [10],POST Application SOLNI herbicidal damage (five point scale) (Solanum nigrum (SOLNI) [11]),PRE Application SOLNI herbicidal damage (five point scale) (Solanum nigrum (SOLNI) [12])
Cc1ccc(-c2cnn(C)c(=O)c2O)c(S(C)(=O)=O)c1 [Compound 2.031],5 (5=80-100% damage),5 (5=80-100% damage),4 (4=60-79% damage),3 (3=40-59% damage),5 (5=80-100% damage),4 (4=60-79% damage),5 (5=80-100% damage),5 (5=80-100% damage),5 (5=80-100% damage),5 (5=80-100% damage),5 (5=80-100% damage),5 (5=80-100% damage)
Cn1ncc(-c2ccc([N+](=O)[O-])cc2S(C)(=O)=O)c(O)c1=O [Compound 2.032],5 (5=80-100% damage),5 (5=80-100% damage),2 (2=20-39% damage),3 (3=40-59% damage),2 (2=20-39% damage),3 (3=40-59% damage),4 (4=60-79% damage),5 (5=80-100% damage),5 (5=80-100% damage),5 (5=80-100% damage),5 (5=80-100% damage),5 (5=80-100% damage)
Cn1ncc(-c2ccc(-c3ccccc3)cc2S(C)(=O)=O)c(O)c1=O [Compound 2.033],5 (5=80-100% damage),5 (5=80-100% damage),4 (4=60-79% damage),1 (1=0-19% damage),2 (2=20-39% damage),5 (5=80-100% damage),3 (3=40-59% damage),5 (5=80-100% damage),5 (5=80-100% damage),4 (4=60-79% damage),5 (5=80-100% damage),5 (5=80-100% damage)
Cn1ncc(-c2ccc(SCc3ccccc3)cc2S(C)(=O)=O)c(O)c1=O [Compound 2.035],5 (5=80-100% damage),5 (5=80-100% damage),3 (3=40-59% damage),3 (3=40-59% damage),2 (2=20-39% damage),4 (4=60-79% damage),5 (5=80-100% damage),5 (5=80-100% damage),5 (5=80-100% damage),3 (3=40-59% damage),5 (5=80-100% damage),5 (5=80-100% damage)
Cn1ncc(-c2ccc(S(=O)(=O)Cc3ccccc3)cc2S(C)(=O)=O)c(O)c1=O [Compound 2.036],5 (5=80-100% damage),5 (5=80-100% damage),5 (5=80-100% damage),5 (5=80-100% damage),5 (5=80-100% damage),5 (5=80-100% damage),5 (5=80-100% damage),5 (5=80-100% damage),5 (5=80-100% damage),5 (5=80-100% damage),5 (5=80-100% damage),5 (5=80-100% damage)
Cn1ncc(-c2ccc(S(=O)(=O)N3CCOCC3)cc2S(C)(=O)=O)c(O)c1=O [Compound 2.037],5 (5=80-100% damage),5 (5=80-100% damage),3 (3=40-59% damage),4 (4=60-79% damage),2 (2=20-39% damage),3 (3=40-59% damage),4 (4=60-79% damage),5 (5=80-100% damage),5 (5=80-100% damage),5 (5=80-100% damage),5 (5=80-100% damage),5 (5=80-100% damage)
CC(C)N(C)S(=O)(=O)c1ccc(-c2cnn(C)c(=O)c2O)c(S(C)(=O)=O)c1 [Compound 2.038],5 (5=80-100% damage),5 (5=80-100% damage),5 (5=80-100% damage),4 (4=60-79% damage),4 (4=60-79% damage),4 (4=60-79% damage),5 (5=80-100% damage),5 (5=80-100% damage),4 (4=60-79% damage),5 (5=80-100% damage),5 (5=80-100% damage),5 (5=80-100% damage)
Cn1nc(N)c(-c2ccc(C(F)(F)F)cc2S(C)(=O)=O)c(O)c1=O [Compound 2.039],5 (5=80-100% damage),5 (5=80-100% damage),5 (5=80-100% damage),5 (5=80-100% damage),5 (5=80-100% damage),5 (5=80-100% damage),5 (5=80-100% damage),5 (5=80-100% damage),5 (5=80-100% damage),5 (5=80-100% damage),5 (5=80-100% damage),5 (5=80-100% damage)
COCc1ccc(-c2cnn(C)c(=O)c2O)c(S(C)(=O)=O)c1 [Compound 2.040],5 (5=80-100% damage),5 (5=80-100% damage),5 (5=80-100% damage),3 (3=40-59% damage),4 (4=60-79% damage),5 (5=80-100% damage),5 (5=80-100% damage),5 (5=80-100% damage),5 (5=80-100% damage),5 (5=80-100% damage),5 (5=80-100% damage),5 (5=80-100% damage)
COc1nn(C)c(=O)c(O)c1-c1ccc(C(F)(F)F)cc1S(C)(=O)=O [Compound 2.041],5 (5=80-100% damage),5 (5=80-100% damage),5 (5=80-100% damage),5 (5=80-100% damage),5 (5=80-100% damage),5 (5=80-100% damage),5 (5=80-100% damage),5 (5=80-100% damage),5 (5=80-100% damage),5 (5=80-100% damage),5 (5=80-100% damage),5 (5=80-100% damage)
